Experiments:
[1] = target: T1, CRTH2 (Homo sapiens, UniProt Q9Y5Y4); assay: MDS Prostanoid CRTH2 Binding Assay (Catalog #268030), radioligand binding; conditions: 20 nM of tested compound; ligand 1 nM [3H]PGD2; human recombinant CHO-K1 cells; 2 hours @ 25° C.
T1 construct: host or cells: CHO-K1
T1 sequence (Q9Y5Y4 1-395): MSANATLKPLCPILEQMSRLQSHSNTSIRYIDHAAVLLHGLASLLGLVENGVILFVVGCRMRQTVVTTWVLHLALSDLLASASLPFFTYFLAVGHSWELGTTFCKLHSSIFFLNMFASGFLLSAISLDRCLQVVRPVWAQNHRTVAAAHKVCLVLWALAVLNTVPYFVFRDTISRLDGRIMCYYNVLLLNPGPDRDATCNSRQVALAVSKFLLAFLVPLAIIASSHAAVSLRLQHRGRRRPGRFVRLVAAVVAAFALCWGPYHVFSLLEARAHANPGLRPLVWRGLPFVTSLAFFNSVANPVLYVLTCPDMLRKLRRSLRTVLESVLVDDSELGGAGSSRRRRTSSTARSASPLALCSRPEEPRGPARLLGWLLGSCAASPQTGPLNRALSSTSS
Procedure: The CRTH2 binding affinity of compounds of Formula I were assayed by MDS Pharma Service using the following reagents and conditions:
• MDS Prostanoid CRTH2 Binding Assay (Catalog #268030): • Source: Human recombinant CHO-K1 cells • Ligand: 1 nM [^3H]

[2] = target: T1, CRTH2; conditions: radioligand [3H] Prostaglandin D2; historical value of the MDS assay; cited from earlier work

% inhibition of PGD2 binding [1] [%]	Structure (SMILES)	Kd [2] [nM]
97	CN(C1CCc2c(CC(=O)O)c3ccc(Cl)nc3n2C1)S(=O)(=O)c1ccc(F)cc1 (single isomer, unassigned) [Example 2A]	
0	CN(C1CCc2c(CC(=O)O)c3ccc(Cl)nc3n2C1)S(=O)(=O)c1ccc(F)cc1 (single isomer, unassigned) [Example 2B]	
91	CN(C1CCc2c(CC(=O)O)c3cccnc3n2C1)S(=O)(=O)c1ccc(F)cc1 (single isomer, unassigned) [Example 4A]	
0	CN(C1CCc2c(CC(=O)O)c3cccnc3n2C1)S(=O)(=O)c1ccc(F)cc1 (single isomer, unassigned) [Example 4B]	
	CCCCC[C@H](O)/C=C/[C@H]1C(=O)C[C@H](O)[C@@H]1C/C=C\CCCC(=O)O [PGD2, Prostaglandin D2]	4.1

From patent publication US8772312B2, “Heterocyclic compounds as CRTH2 receptor antagonists” (CSPC Zhongqi Pharmaceutical Technology (Shijiazhuang) Co., …, priority 2007, dated 2014)
